Values after ≈ are worked out from the molar mass of the structure shown.
How the values were obtained:
[1] = target: T1, RalB-GDP (Homo sapiens, UniProt P11234, Q72L); assay: Isothermal Titration Calorimetry (ITC); assay type: binding; conditions: 25° C.; 50 mM sodium phosphate pH 7.6; 1% DMSO
T1 construct: made in house
T1 sequence (P11234 1-206 Q72L): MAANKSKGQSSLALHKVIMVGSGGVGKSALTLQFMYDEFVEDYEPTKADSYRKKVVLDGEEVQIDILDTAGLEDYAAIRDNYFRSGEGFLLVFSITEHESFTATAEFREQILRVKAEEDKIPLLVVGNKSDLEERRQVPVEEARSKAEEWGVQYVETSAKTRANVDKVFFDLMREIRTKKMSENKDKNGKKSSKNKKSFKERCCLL
Protocol: Consequently, the binding of BQU57 to RalB-GDP was then determined using Isothermal Titration Calorimetry (ITC). ITC experiments were carried out using the MicroCal iTC200 system. Both protein and drug were prepared in 50 mM sodium phosphate, pH 7.6, 100 mM NaCl, and 1 mM MgCl2. Final DMSO concentration was adjusted to 1%. RalB-GDP protein (500 μM) were loaded into the syringe and titrated into drug (25 μM) or buffer alone as control. All experiments were carried out at 25° C. […] SPR experiments were carried out using the Biacore 3000 system. Running buffer: PBS, pH 7.4, 1 μM GDP, 2 mM MgCl2, 3% DMSO. Regeneration buffer: PBS, pH 7.4, 1 μM GDP, 2 mM Mg Cl2. RalB protein was immobilized on CM5 chip; samples of compound BQU57 in running buffer were injected at 30 μL/min for 60 s contact time followed by 5 minute regeneration.

[2] = target: T1, RalB-GDP; assay: Differential scanning fluorometry (DSF); assay type: binding; conditions: 10 μM RalB-GDP, 1% DMSO
Protocol: Differential scanning fluorometry (DSF) was used to evaluate binding between compounds and RalB-GDP. The melting temperature was measured by monitoring the increase of SYPRO orange that binds to hydrophobic regions of the protein. DSF was performed by preparing a plate containing 10 μM RalB-GDP and 10 μM RalB-GPNPP, 4×SYPRO orange in 20 mM Tris PH 8.0, 200 mM NaCl, 2.5 mM MgCl2 and 1 mM DTT buffer. Test compound was added to each well ensuring that the final concentration of DMSO was 1% across all samples. The thermal melting curves were obtained on a Light cycler 480 (Roche). The melting temperature was obtained by normalizing the curves and obtaining the temperature at the midpoint of the transition curve.

[3] = physchem; assay type: physicochemical; conditions: aqueous buffer
[4] = tested on: Ras; assay: Ras activity pull-down in H2122 xenograft tumors; assay type: in vivo, human; conditions: BQU57 treated H2122 tumors, 3 h post-dose
Description: (§1) Activity assay kits for Ras (#BK008) and RhoA (#BK036) were obtained from Cytoskeleton (Denver, Colo.). We used an ELISA for Ral activity based on selective binding of active RalA-GTP to its effector protein RalBP1.
(§2) Finally, we evaluated Ral GTPase activity in vivo in the H2122 xenografts. Nude mice were inoculated with 5×10^6 cells H2122 cells s.c. at four sites per mice. Tumor size reached an average of 250 mm^3 in ten days, at which time mice were given a signal i.p. dose of RBC8 or BQU57 at various concentrations. Tumors were then collected 3 h after injection of RBC8 or BQU57. RalA and RalB activity in tumor samples were then measured using the RalBP1 pull-down assay kit (Millipore #14-415). Ras and RhoA activity in tumor samples were measured using the respective pull-down assay kits. All the activity assays used western blotting as the final readout. For quantification of the immunoblots, the bands on each blot were first normalized to their respective internal control (10 ng of recombinant Ral, Ras, or […] protein run in the last lane) the numbers were then compared across different blots, each of which represented one treatment condition. Mice bearing H2122 tumors (median size 250 mm^3) were given a single intraperitoneal dose of RBC8 (50 mg/kg) or BQU57 (10/20/50 mg/kg) and tumors collected 3 h post-dose.

[5] = target: T2, RhoA (Homo sapiens, UniProt P61586); assay: RhoA activity pull-down in H2122 xenograft tumors; assay type: in vivo; conditions: BQU57 treated H2122 tumors, 3 h post-dose
T2 construct: from tissue; host or cells: H2122 xenograft tumours from nude mice
T2 sequence (P61586 whole entry): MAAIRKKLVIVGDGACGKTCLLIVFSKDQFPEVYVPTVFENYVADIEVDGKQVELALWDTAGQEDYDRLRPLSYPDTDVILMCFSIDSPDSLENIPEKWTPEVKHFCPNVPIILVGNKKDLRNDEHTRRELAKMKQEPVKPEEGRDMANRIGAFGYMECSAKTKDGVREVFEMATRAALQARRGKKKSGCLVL
Description: as §1, §2

## Cc1nn(C)c2c1C(c1ccc(C(F)(F)F)cc1)C(C#N)=C(N)O2 (centres unmarked) [BQU57, 6-amino-1,3-dimethyl-4-(4-(trifluoromethyl)phenyl)-1,4-dihydropyrano[2,3-c]pyrazole-5-carbonitrile]
[1]
  Kd: 7.7 ± 0.6 µM
[2]
  binding to RalB-GDP by DSF (melting temperature): dose-dependent binding
[3]
  solubility: ~75 µM (≈ 25.1 µg/mL)
[4]
  inhibition of Ras activity in tumors: no significant inhibition
[5]
  inhibition of RhoA activity in tumors: no significant inhibition
